Assays:
[1] = Substrate (ligand) specificity of […]s; format: biochemical
Experimental: (§1) Fig. 4 Engineering ligand specificity of GrsA-PheA for generating […]s. a The selectivity-conferring code of Phe and Leu A domains. b–f Dose–response curve of purified […]s with increasing concentrations of ligands in 100 mM Tris-HCl buffer (pH=7.5). All data shown are means ± S.D. (n = 3 biologically independent samples). g A series of […] reactions was tested to show the […]’s specificity with 20 proteinogenic amino acids. The values on the heatmap represent the ΔF/F0 value normalized to each […]’s maximal ΔF/F0 value ((ΔF/F0)/maximal ΔF/F0). The concentrations of 20 amino acids were 100 μM. The color indicates the average value of three independent biological replicates after 15 min. All data shown are means ± S.D. (n = 3 biologically independent samples). Source data are provided as a Source data file.
Ligand specificity is an important biosensors feature. Generally, the NRPS A domains have high specificity for their substrates because they are the first “gatekeeper” of NRPSs and ensure that the correct monomers are activated and thioesterified[32],[33]. Therefore, we speculated that this property would be inherited by our […]s because the ligand-binding pockets were unchanged during the […] creation process. Twenty proteinogenic amino acids were used to test the ligand specificity of […]s. […] We also investigated the dependence of […]s on Mg^2+ and ATP (Supplementary Fig. 4). […] This phenomenon corroborates with the distinct conformational changes observed in Hinge A of Nt4CL2 (Mg^2++ATP) (PDB ID: 5BSM) and Nt4CL2 (Coumaroyl-AMP) (PDB ID: 5BST) reported in the literature (Supplementary Fig. 4k), where the direction of motion in hinge A differs. […] During the determination of quantum yield, we observed that the absolute quantum yield of the […] variants ranged from 0.3 to 0.6 upon addition of the respective substrates, which show no significant difference with that reported in literature. The specific values are provided in Supplementary Table 2.
(§2) The study conducted dose–response curve, substrate specificity, and fluorescent spectrum analyses in 100-mM Tris buffer (pH = 7.5), while pH stability experiments were performed in 100-mM Tris buffer at three different pH values (6.5, 7.5, and 8.5) at room temperature. […] protein at a concentration of 0.75 μM, various small molecule concentrations, 1 mM ATP, and 2.5 mM MgCl2 were used in the experiments. Fluorescent signals were detected using a Microplate Reader (Synergy H4, Bio Tek) at an excitation/emission wavelength of 460 nm/510 nm or 480 nm/510 nm. The dose-response curve was determined immediately after the addition of the analyte. The total duration of the measurement was 15 min, with readings taken at one-minute intervals. The dose-response curve was plotted using the fluorescence values obtained after achieving stability in the fluorescence signal. The dose-response curves were fitted using the logistic model LOGISTIC5 available in Origin 2021, which could provide a more adequate fit to asymmetric dose-response data[62],[63]. Excitation spectra were scanned from 300 to 540 nm with a step size of 5 nm, and the emission wavelength was set to 560 nm. Emission spectra were scanned from 470 to 700 nm with a step size of 5 nm, and the excitation wavelength was set to 450 nm. The thermal stability of […] was analyzed using the UNcle multifunctional protein stability analysis system. Measurements were performed in 20 mM MOPS buffer with 2 mM DTT at a sample concentration of 1 mg/mL. Absolute fluorescence quantum yields were measured using an absolute photoluminescence quantum yield spectrometer (FS5, Edinburgh).

[2] = Dose–response curve of purified GECFINDERs with leucine; format: biochemical
Experimental: as §1, §2

## CC(C)C[C@H](N)C(=O)O [Leu]
[1]; 1 mM ligand, Control AVE 12117.3
  AVE of Repeat 1-3, sensor signal with ligand (Supplementary Fig. 7 c): 12093
[1]; Supplementary Fig. 3 c, substrate specificity
  fluorescence response of GECFINDER to each substrate, AVE of 3 repeats: -0.01092
[2]; substrate Leu 0.001 μM
  AVE, dose-response Fig. 4 b: -7.112e-17
[2]; substrate Leu 0.005 μM
  AVE, dose-response Fig. 4 b: 0.003877
  AVE, dose-response Fig. 4 d: -5.262e-17
[2]; substrate Leu 0.01 μM
  AVE, dose-response Fig. 4 b: 0.02311
  AVE, dose-response Fig. 4 d: 0.03426
[2]; substrate Leu 0.05 μM
  AVE, dose-response Fig. 4 b: 0.04234
[2]; substrate Leu 0.1 μM
  AVE, dose-response Fig. 4 b: 0.03637
  AVE, dose-response Fig. 4 d: 0.06576
[2]; substrate Leu 0.5 μM
  AVE, dose-response Fig. 4 b: 0.02815
  AVE, dose-response Fig. 4 c: 6.794e-17
[2]; substrate Leu 1 μM
  AVE, dose-response Fig. 4 b: 0.02962
  AVE, dose-response Fig. 4 c: 0.0405
  AVE, dose-response Fig. 4 d: 0.08826
[2]; substrate Leu 5 μM
  AVE, dose-response Fig. 4 b: 0.0138
  AVE, dose-response Fig. 4 c: 0.1266
  AVE, dose-response Fig. 4 d: 0.1792
[2]; substrate Leu 10 μM
  AVE, dose-response Fig. 4 b: 0.1049
  AVE, dose-response Fig. 4 c: 0.1121
  AVE, dose-response Fig. 4 d: 0.2348
[2]; substrate Leu 25 μM
  AVE, dose-response Fig. 4 b: 0.1731
[2]; substrate Leu 50 μM
  AVE, dose-response Fig. 4 b: 0.2052
  AVE, dose-response Fig. 4 c: 0.2857
  AVE, dose-response Fig. 4 d: 0.4576
[2]; substrate Leu 100 μM
  AVE, dose-response Fig. 4 b: 0.2136
  AVE, dose-response Fig. 4 c: 0.4006
  AVE, dose-response Fig. 4 d: 0.5636
[2]; substrate Leu 2 μM
  AVE, dose-response Fig. 4 c: 0.06186
[2]; substrate Leu 20 μM
  AVE, dose-response Fig. 4 c: 0.1733
[2]; substrate Leu 200 μM
  AVE, dose-response Fig. 4 c: 0.5877
  AVE, dose-response Fig. 4 d: 0.7427
[2]; substrate Leu 500 μM
  AVE, dose-response Fig. 4 c: 0.7587
  AVE, dose-response Fig. 4 d: 0.9952
[2]; substrate Leu 750 μM
  AVE, dose-response Fig. 4 c: 0.8241
  AVE, dose-response Fig. 4 d: 1.079
[2]; substrate Leu 1000 μM
  AVE, dose-response Fig. 4 c: 0.7953
  AVE, dose-response Fig. 4 d: 1.107
[2]; Supplementary Fig. 3 a, Leu 0.001 μM
  fluorescence response of GECFINDER, AVE of 3 repeats: 0
[2]; Supplementary Fig. 3 a, Leu 0.005 μM
  fluorescence response of GECFINDER, AVE of 3 repeats: 0.02218
[2]; Supplementary Fig. 3 a, Leu 0.01 μM
  fluorescence response of GECFINDER, AVE of 3 repeats: 0.03478
[2]; Supplementary Fig. 3 a, Leu 0.1 μM
  fluorescence response of GECFINDER, AVE of 3 repeats: 0.05423
[2]; Supplementary Fig. 3 a, Leu 1 μM
  fluorescence response of GECFINDER, AVE of 3 repeats: 0.08086
[2]; Supplementary Fig. 3 a, Leu 10 μM
  fluorescence response of GECFINDER, AVE of 3 repeats: 0.1724
[2]; Supplementary Fig. 3 a, Leu 50 μM
  fluorescence response of GECFINDER, AVE of 3 repeats: 0.3353
[2]; Supplementary Fig. 3 a, Leu 100 μM
  fluorescence response of GECFINDER, AVE of 3 repeats: 0.4583
[2]; Supplementary Fig. 3 a, Leu 500 μM
  fluorescence response of GECFINDER, AVE of 3 repeats: 0.754
[2]; Supplementary Fig. 3 a, Leu 1000 μM
  fluorescence response of GECFINDER, AVE of 3 repeats: 0.8727
[2]; Supplementary Fig. 3 a, Leu 5000 μM
  fluorescence response of GECFINDER, AVE of 3 repeats: 1.081
[2]; Supplementary Fig. 3 a, Leu 10000 μM
  fluorescence response of GECFINDER, AVE of 3 repeats: 0.9665
[2]; Supplementary Fig. 3 b, Leu 0.001 μM
  fluorescence response of GECFINDER, AVE of 3 repeats: 4.279e-17
[2]; Supplementary Fig. 3 b, Leu 0.005 μM
  fluorescence response of GECFINDER, AVE of 3 repeats: 0.01278
[2]; Supplementary Fig. 3 b, Leu 0.01 μM
  fluorescence response of GECFINDER, AVE of 3 repeats: 0.01795
[2]; Supplementary Fig. 3 b, Leu 0.1 μM
  fluorescence response of GECFINDER, AVE of 3 repeats: 0.04976
[2]; Supplementary Fig. 3 b, Leu 1 μM
  fluorescence response of GECFINDER, AVE of 3 repeats: 0.111
[2]; Supplementary Fig. 3 b, Leu 10 μM
  fluorescence response of GECFINDER, AVE of 3 repeats: 0.3678
[2]; Supplementary Fig. 3 b, Leu 50 μM
  fluorescence response of GECFINDER, AVE of 3 repeats: 0.7094
[2]; Supplementary Fig. 3 b, Leu 100 μM
  fluorescence response of GECFINDER, AVE of 3 repeats: 0.9192
[2]; Supplementary Fig. 3 b, Leu 500 μM
  fluorescence response of GECFINDER, AVE of 3 repeats: 1.615
[2]; Supplementary Fig. 3 b, Leu 1000 μM
  fluorescence response of GECFINDER, AVE of 3 repeats: 1.882
[2]; Supplementary Fig. 3 b, Leu 5000 μM
  fluorescence response of GECFINDER, AVE of 3 repeats: 2.296
[2]; Supplementary Fig. 3 b, Leu 10000 μM
  fluorescence response of GECFINDER, AVE of 3 repeats: 2.333
